Test results: PMC5762315, “Inhibition of polo-like kinase 4 (PLK4): a new therapeutic option for rhabdoid tumors and pediatric medulloblastoma” (Oncotarget, 2017)
Several values for one entry are separate records, joined by “and”; a condition that tells them apart may be missing. Identical values can stand only once.

How the values were obtained:
Assay in all cases: biochemical
Assay type in all cases: biochemical
various kinases [1] = target: various kinases (Homo sapiens, UniProt O00506); conditions: kinase STK25 (YSK1); ZLYTE
various kinases (Homo sapiens, UniProt O00506), sequence (O00506 whole entry): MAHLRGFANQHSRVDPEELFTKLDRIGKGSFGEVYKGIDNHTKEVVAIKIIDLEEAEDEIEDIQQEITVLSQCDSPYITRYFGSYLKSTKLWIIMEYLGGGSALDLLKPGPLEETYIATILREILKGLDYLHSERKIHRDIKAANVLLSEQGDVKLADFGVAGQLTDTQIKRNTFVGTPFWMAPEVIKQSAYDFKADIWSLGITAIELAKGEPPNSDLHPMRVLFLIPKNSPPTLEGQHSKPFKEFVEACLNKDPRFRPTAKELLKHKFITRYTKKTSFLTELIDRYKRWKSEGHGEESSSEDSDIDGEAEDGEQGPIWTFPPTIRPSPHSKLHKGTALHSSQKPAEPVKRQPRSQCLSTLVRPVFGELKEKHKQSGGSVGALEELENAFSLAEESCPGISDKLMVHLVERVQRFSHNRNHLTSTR

various kinases [2] = target: T1, various kinases (Homo sapiens, UniProt O94806); conditions: kinase PRKCN (PKD3); ZLYTE
T1 sequence (O94806 1-890): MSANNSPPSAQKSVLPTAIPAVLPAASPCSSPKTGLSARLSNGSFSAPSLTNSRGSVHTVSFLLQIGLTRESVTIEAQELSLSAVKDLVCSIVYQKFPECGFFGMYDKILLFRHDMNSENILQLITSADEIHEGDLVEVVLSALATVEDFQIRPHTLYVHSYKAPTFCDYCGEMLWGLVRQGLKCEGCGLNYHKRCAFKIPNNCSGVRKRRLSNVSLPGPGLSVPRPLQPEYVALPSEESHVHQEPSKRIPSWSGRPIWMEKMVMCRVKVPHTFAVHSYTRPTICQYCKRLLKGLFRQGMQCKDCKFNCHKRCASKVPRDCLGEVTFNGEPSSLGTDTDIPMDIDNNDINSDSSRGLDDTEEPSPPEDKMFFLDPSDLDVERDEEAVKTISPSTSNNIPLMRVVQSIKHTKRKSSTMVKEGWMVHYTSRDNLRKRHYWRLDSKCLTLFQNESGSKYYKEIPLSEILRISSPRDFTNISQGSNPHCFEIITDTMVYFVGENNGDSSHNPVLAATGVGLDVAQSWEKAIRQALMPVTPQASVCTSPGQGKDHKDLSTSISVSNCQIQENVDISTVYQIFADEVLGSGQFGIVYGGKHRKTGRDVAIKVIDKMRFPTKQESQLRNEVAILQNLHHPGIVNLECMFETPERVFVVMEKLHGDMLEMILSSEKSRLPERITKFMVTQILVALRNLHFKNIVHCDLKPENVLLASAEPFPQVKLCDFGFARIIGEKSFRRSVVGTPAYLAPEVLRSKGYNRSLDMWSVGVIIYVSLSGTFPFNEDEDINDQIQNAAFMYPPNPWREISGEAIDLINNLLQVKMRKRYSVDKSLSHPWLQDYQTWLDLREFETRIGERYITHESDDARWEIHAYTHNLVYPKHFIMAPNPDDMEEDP

various kinases [3] = target: various kinases (Homo sapiens, UniProt P08069); conditions: IGF1R
various kinases [4] = target: various kinases (Homo sapiens, UniProt P21802); conditions: FGFR2
various kinases [5] = target: various kinases (Homo sapiens, UniProt P22607, V555M); conditions: FGFR3 V555M
various kinases [6] = target: various kinases (Homo sapiens, UniProt P29597); conditions: kinase TYK2; ZLYTE
various kinases (Homo sapiens, UniProt P29597), sequence (P29597 whole entry): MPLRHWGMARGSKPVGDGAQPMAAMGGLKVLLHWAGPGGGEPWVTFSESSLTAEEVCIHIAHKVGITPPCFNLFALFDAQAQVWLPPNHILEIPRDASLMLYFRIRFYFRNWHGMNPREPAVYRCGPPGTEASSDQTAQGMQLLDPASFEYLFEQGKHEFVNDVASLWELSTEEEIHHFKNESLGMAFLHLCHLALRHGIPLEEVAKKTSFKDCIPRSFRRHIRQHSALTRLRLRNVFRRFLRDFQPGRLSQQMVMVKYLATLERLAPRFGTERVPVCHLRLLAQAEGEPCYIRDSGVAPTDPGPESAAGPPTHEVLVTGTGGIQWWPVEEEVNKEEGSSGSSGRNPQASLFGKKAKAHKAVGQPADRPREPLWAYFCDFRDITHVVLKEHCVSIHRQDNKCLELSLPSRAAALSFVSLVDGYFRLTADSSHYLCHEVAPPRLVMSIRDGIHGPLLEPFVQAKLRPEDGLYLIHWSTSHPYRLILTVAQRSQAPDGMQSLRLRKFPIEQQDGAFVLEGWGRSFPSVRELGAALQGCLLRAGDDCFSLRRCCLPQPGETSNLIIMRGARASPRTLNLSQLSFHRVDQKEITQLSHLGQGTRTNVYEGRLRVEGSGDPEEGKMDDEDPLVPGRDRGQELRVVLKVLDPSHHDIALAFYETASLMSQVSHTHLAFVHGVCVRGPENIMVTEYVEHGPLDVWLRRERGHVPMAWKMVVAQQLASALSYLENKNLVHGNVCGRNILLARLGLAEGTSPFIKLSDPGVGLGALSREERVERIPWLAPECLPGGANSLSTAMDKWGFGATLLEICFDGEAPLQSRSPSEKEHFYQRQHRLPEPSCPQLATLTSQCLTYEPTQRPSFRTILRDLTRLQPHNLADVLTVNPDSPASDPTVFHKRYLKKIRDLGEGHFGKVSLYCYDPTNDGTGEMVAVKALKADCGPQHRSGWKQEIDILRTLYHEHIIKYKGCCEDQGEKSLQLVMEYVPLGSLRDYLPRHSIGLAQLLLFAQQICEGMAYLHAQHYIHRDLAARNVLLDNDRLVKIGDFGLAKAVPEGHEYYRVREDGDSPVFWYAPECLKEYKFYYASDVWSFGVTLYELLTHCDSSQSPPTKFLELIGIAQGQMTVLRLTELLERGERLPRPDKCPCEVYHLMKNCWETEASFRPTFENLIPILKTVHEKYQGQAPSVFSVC

various kinases [7] = target: various kinases (Homo sapiens, UniProt P43250); conditions: GRK6
various kinases [8] = target: various kinases (Homo sapiens, UniProt P49760); conditions: CLK2
various kinases [9] = target: various kinases (Homo sapiens, UniProt P49761); conditions: CLK3
various kinases [10] = target: various kinases (Homo sapiens, UniProt P52333); conditions: JAK3
various kinases [11] = target: various kinases (Homo sapiens, UniProt P54646)
various kinases [12] = target: various kinases (Homo sapiens, UniProt Q05397); conditions: kinase PTK2 (FAK); ZLYTE
various kinases (Homo sapiens, UniProt Q05397), sequence (Q05397 whole entry): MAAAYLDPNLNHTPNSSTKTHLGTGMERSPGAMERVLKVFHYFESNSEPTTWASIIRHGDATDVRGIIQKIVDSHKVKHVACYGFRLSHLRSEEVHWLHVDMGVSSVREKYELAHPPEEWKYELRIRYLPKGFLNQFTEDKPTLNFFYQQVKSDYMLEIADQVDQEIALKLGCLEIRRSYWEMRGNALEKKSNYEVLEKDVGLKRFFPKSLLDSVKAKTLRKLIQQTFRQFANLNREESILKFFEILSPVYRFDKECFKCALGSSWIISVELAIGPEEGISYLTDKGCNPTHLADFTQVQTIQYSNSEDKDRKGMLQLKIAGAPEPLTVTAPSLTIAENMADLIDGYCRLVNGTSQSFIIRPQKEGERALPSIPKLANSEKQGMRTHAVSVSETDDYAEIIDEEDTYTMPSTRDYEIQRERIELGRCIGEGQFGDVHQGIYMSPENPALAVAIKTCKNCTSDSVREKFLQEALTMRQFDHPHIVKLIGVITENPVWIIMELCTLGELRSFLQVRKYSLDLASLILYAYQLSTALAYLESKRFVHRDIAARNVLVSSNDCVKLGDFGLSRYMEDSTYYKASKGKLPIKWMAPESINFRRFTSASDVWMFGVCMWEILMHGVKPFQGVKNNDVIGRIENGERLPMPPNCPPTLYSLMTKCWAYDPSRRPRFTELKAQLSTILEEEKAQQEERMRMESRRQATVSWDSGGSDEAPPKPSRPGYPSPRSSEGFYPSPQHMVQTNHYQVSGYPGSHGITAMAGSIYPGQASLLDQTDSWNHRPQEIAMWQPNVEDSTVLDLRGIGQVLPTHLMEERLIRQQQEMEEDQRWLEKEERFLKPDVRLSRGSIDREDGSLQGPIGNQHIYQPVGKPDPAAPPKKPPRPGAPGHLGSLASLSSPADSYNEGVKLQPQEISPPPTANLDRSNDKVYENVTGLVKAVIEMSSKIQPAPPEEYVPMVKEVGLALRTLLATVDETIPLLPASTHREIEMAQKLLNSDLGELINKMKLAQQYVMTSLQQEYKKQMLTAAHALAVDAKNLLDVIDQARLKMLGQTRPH

various kinases [13] = target: various kinases (Homo sapiens, UniProt Q13164); conditions: MAPK7 (ERK5)
various kinases [14] = target: various kinases (Homo sapiens, UniProt Q13464); conditions: kinase ROCK1; ZLYTE
various kinases (Homo sapiens, UniProt Q13464), sequence (Q13464 whole entry): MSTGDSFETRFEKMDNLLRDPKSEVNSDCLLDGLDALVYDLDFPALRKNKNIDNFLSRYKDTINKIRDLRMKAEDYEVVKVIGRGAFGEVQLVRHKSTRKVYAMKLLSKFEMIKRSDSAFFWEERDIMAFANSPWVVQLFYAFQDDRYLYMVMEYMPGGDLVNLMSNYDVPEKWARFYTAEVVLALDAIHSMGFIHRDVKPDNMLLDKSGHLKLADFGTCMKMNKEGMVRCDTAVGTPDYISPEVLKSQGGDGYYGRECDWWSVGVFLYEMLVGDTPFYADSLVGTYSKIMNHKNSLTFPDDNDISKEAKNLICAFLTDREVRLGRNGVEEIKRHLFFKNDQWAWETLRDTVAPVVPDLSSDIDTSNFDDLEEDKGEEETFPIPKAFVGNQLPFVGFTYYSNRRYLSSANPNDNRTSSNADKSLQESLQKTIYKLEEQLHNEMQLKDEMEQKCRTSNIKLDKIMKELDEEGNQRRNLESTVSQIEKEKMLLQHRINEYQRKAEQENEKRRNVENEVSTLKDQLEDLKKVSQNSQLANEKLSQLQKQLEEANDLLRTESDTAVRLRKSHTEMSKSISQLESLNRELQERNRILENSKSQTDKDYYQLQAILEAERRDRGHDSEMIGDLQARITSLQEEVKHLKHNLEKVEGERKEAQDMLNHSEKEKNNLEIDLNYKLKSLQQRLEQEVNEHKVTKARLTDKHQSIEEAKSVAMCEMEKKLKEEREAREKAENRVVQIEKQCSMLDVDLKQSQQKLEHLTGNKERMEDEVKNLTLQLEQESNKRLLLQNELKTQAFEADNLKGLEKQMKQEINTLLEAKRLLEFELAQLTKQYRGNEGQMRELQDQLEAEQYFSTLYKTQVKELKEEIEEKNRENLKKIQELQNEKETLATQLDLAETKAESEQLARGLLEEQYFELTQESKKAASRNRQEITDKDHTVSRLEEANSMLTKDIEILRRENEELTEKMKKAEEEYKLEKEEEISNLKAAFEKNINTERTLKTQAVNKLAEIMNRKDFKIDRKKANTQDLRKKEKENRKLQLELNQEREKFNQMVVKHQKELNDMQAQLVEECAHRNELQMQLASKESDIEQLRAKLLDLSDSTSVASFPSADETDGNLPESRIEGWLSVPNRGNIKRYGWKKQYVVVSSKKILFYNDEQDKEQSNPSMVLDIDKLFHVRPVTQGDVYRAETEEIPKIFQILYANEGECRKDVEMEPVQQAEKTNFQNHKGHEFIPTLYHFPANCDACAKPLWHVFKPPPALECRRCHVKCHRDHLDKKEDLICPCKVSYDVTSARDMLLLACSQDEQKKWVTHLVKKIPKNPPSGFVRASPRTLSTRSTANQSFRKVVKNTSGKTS

various kinases [15] = target: T2, various kinases (Homo sapiens, UniProt Q13470); conditions: kinase TNK1; ZLYTE
T2 sequence (Q13470 1-666): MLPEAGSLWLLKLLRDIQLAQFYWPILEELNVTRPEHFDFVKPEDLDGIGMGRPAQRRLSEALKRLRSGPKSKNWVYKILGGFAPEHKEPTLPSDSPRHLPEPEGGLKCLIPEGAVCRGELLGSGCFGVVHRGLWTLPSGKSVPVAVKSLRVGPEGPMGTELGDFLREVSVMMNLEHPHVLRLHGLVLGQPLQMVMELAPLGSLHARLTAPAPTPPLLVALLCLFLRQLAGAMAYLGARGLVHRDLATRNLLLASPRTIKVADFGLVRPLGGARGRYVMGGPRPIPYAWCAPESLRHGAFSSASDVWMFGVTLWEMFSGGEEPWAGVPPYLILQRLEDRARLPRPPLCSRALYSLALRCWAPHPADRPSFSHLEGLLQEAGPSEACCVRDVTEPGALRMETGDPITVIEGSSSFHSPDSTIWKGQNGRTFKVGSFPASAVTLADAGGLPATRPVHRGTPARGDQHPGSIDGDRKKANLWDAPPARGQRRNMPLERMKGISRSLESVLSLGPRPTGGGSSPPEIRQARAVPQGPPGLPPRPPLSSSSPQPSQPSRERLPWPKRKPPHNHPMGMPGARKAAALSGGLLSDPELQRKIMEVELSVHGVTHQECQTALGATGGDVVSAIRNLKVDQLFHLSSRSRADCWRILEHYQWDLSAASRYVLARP

various kinases [16] = target: various kinases (Homo sapiens, UniProt Q15349); conditions: kinase RPS6KA2 (RSK3); ZLYTE
various kinases [17] = target: various kinases (Homo sapiens, UniProt Q96SB4); conditions: kinase SRPK1; ZLYTE
various kinases (Homo sapiens, UniProt Q96SB4), sequence (Q96SB4 whole entry): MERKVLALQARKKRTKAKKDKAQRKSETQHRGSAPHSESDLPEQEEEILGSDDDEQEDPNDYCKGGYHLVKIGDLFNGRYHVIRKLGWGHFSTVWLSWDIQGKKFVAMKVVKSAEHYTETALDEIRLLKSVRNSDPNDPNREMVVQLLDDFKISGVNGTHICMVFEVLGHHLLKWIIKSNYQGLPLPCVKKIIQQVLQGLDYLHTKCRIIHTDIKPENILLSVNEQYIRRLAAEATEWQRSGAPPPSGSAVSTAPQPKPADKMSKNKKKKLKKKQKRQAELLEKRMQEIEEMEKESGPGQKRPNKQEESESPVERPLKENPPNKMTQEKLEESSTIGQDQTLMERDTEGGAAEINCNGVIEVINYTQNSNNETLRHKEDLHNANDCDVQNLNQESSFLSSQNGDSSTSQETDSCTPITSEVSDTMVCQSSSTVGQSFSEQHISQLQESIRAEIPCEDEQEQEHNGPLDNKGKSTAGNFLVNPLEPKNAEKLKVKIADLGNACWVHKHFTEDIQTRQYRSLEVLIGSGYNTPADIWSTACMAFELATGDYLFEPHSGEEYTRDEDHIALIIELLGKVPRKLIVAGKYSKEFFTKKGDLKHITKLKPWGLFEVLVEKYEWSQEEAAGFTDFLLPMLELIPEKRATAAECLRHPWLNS

various kinases [18] = target: various kinases (Homo sapiens, UniProt Q9P1W9); conditions: PIM2
various kinases (Homo sapiens, UniProt Q9P1W9), sequence (Q9P1W9 whole entry): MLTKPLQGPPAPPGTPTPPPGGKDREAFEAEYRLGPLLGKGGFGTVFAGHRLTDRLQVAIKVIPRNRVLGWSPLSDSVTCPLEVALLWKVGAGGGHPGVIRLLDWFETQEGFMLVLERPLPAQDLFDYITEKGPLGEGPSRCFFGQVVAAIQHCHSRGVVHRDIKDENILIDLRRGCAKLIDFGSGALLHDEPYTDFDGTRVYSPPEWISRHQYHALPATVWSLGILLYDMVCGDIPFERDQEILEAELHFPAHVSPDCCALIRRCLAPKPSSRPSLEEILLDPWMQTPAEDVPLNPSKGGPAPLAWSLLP
Wherever % Inhibition Average is given: test concentration or dose not given here.
Wherever % Inhibition Duplicate #1 is given: test concentration or dose not given here.
Wherever % Inhibition Duplicate #2 is given: test concentration or dose not given here.

COc1ccc2c(c1)[C@]1(C[C@H]1c1ccc3c(/C=C/c4ccc(CN5C[C@@H](C)O[C@@H](C)C5)cc4)n[nH]c3c1)C(=O)N2 [CFI-400945]
% Inhibition Average (various kinases [1]): -3%
% Inhibition Duplicate #1 (various kinases [1]): 0%
% Inhibition Duplicate #2 (various kinases [1]): -6%
% Inhibition Average (various kinases [2]): 4%
% Inhibition Duplicate #1 (various kinases [2]): 3%
% Inhibition Duplicate #2 (various kinases [2]): 4%
% Inhibition (various kinases [3]): 8%
% Inhibition (various kinases [4]): 55% and 58%
% Inhibition (various kinases [5]): 56%
% Inhibition Average (various kinases [6]): 2%
% Inhibition Duplicate #1 (various kinases [6]): 2%
% Inhibition Duplicate #2 (various kinases [6]): 2%
% Inhibition (various kinases [7]): 5%
% Inhibition (various kinases [8]): 0% and 7%
% Inhibition (various kinases [9]): 2% and 0%
% Inhibition (various kinases [10]): 23%
% Inhibition (various kinases [11]; AMPK (A2/B1/G2)): 27% and 22%
% Inhibition (various kinases [11]; AMPK (A2/B1/G3)): 9% and 15%
% Inhibition (various kinases [11]; AMPK (A2/B2/G3)): 9% and 10%
% Inhibition (various kinases [11]; AMPK A2/B1/G1): 5% and 6%
% Inhibition Average (various kinases [12]): 4%
% Inhibition Duplicate #1 (various kinases [12]): 5%
% Inhibition Duplicate #2 (various kinases [12]): 3%
% Inhibition (various kinases [13]): -2% and 0%
% Inhibition Average (various kinases [14]): 0%
% Inhibition Duplicate #1 (various kinases [14]): 0%
% Inhibition Duplicate #2 (various kinases [14]): 0%
% Inhibition Average (various kinases [15]): 30%
% Inhibition Duplicate #1 (various kinases [15]): 26%
% Inhibition Duplicate #2 (various kinases [15]): 34%
% Inhibition Average (various kinases [16]): 12%
% Inhibition Duplicate #1 (various kinases [16]): 11%
% Inhibition Duplicate #2 (various kinases [16]): 13%
% Inhibition Average (various kinases [17]): 5%
% Inhibition Duplicate #1 (various kinases [17]): 6%
% Inhibition Duplicate #2 (various kinases [17]): 3%
% Inhibition (various kinases [18]): 8% and 9%
